Assays:
Test in all cases: Test E pre-/postemergence herbicide test
[1] = test system: common groundsel; format: in vivo, Senecio vulgaris; details: scale 0 to 100
How it was run: (§1)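 Test chemicals in a non-phytotoxic solvent mixture with surfactant applied preemergence to planted seeds and postemergence to plants 2 to 18 cm tall (1- to 4-leaf stage). After 12 to 14 days in the greenhouse, injury rated visually against untreated controls on a 0–100 scale (0 no effect, 100 complete control).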

[2] = test system: broadleaf signalgrass; format: in vivo, Brachiaria platyphylla
How it was run: as §1

[3] = test system: hairy beggarticks; format: in vivo, Bidens radiata; details: Preemergence
From the text: Seeds of plant species selected from bipinnate beggarticks (Bidens bipinnata L.), hairy beggarticks (Bidens radiata Thuill.), bermudagrass (Cynodon dactylon (L.) Pers.), Surinam grass (Urochloa decumbens (Staph) R. D. Webster, previously named Brachiaria decumbens Stapf), large crabgrass (Digitaria sanguinalis (L.) Scop.), green foxtail (Setaria viridis (L.) P. Beauv.), goosegrass (Eleusine indica (L.) Gaertn.), johnsongrass (Sorghum halepense (L.) Pers.), kochia (Kochia scoparia (L.) Schrad.), pitted morningglory (Ipomoea lacunosa L.), purple nutsedge (Cyperus rotundus L.), common ragweed (Ambrosia elatior L.), mustard (Brassica nigra (L.) W. D. J. Koch), guineagrass (Panicum maximum Jacq.), dallisgrass (Paspalum dilatatum Poir.), barnyardgrass (Echinochloa crus-galli (L). P. Beauv.), southern sandbur (Cenchrus echinatus L.), common sowthistle (Sonchus oleraceous L.), prickly sida (Sida spinosa L.), Italian ryegrass (Lolium multiflorum Lam.), common purslane (Portulaca oleracea L.), broadleaf signalgrass (Brachiaria platyphylla (Griseb.) Nash), common groundsel (Senecio vulgaris L.), common chickweed (Stellaria media (L.) Vill/Cyr.), tropical spiderwort (Commelina benghalensis L.), annual bluegrass (Poa annua L.), downy bromegrass (Bromus tectorum L.), itchgrass (Rottboellia cochinchinensis (L.) L.f.), quackgrass (Elytrigia repens (L.) Nevski), Canada horseweed (Erigeron Canadensis L.), field bindweed (Convolvulus arvensis L.), spotted spurge (Euphorbia maculata L.), common mallow (Malva sylvestris (=s silvestris) L.), and Russian thistle (Salsola kali L. ssp. Ruthenica (Iljin) Soo) were planted and treated preemergence with test chemicals formulated in a non-phytotoxic solvent mixture which included a surfactant.
At the same time, plants selected from these weed species were treated with postemergence applications of some of the test chemicals formulated in the same manner. Plants ranged in height from 2 to 18 cm (1- to 4-leaf stage) for postemergence treatments. Treated plants and controls were maintained in a greenhouse for 12 to 14 days, after which time all species were compared to controls and visually evaluated. Plant response ratings, summarized in Table E, are based on a scale of 0 to 100 where 0 is no effect and 100 is complete control. A dash (-) response means no test result.

[4] = test system: common purslane; format: in vivo, Portulaca oleracea; details: scale 0 to 100
How it was run: as §1

[5] = test system: johnsongrass; format: in vivo, Sorghum halepense
How it was run: as §1

[6] = test system: field bindweed; format: in vivo, Convolvulus arvensis
How it was run: as §1

[7] = test system: large crabgrass; format: in vivo, Digitaria sanguinalis
How it was run: as §1

[8] = test system: barnyardgrass; format: in vivo, Echinochloa crus-galli
How it was run: as §1

[9] = test system: downy bromegrass; format: in vivo, Bromus tectorum
How it was run: as §1

[10] = test system: guineagrass; format: in vivo, Panicum maximum
How it was run: as §1

[11] = Postemergence, 500 g ai/ha, scale 0 to 100
[12] = Postemergence, 250 g ai/ha, scale 0 to 100
[13] = Preemergence, 125 g ai/ha, scale 0 to 100
[14] = Preemergence, 250 g ai/ha, scale 0 (no effect) to 100 (complete control)
[15] = Preemergence, 375 g ai/ha, scale 0 (no effect) to 100 (complete control)
[16] = Preemergence, 500 g ai/ha, scale 0 (no effect) to 100 (complete control)
[17] = postemergence, 125 g ai/ha, scale 0 to 100
[18] = postemergence, 62 g ai/ha, scale 0 to 100

## CCn1nc(C(C)(C)C)cc1C(=O)Nc1cc(C(=S)N(C)C)ccc1F [Compound 294]
[1]; Postemergence, 250 g ai/ha
  Plant response rating, Groundsel: 90
[1]; postemergence, 62 g ai/ha
  Plant response rating, Groundsel: 50
[2]; [11]
  Plant response rating, Signalgrass: 70
[2]; [12]
  Plant response rating, Signalgrass: 50
[2]; [13]
  Plant response rating, Signalgrass: 50
[2]; [14]
  Plant response rating, Signalgrass: 70
[2]; [15]
  Plant response rating, Signalgrass: 80
[2]; [16]
  Plant response rating, Signalgrass: 80
[2]; [17]
  Plant response rating, Signalgrass: 30
[2]; [18]
  Plant response rating, Signalgrass: 30
[3]; 125 g ai/ha, scale 0 to 100
  Plant response rating, Beggarticks, Hairy: 100
[3]; 250 g ai/ha, scale 0 (no effect) to 100 (complete control)
  Plant response rating, Beggarticks, Hairy: 100
[3]; 375 g ai/ha, scale 0 (no effect) to 100 (complete control)
  Plant response rating, Beggarticks, Hairy: 100
[3]; 500 g ai/ha, scale 0 (no effect) to 100 (complete control)
  Plant response rating, Beggarticks, Hairy: 100
[4]; Postemergence, 500 g ai/ha
  Plant response rating, Purslane: 90
[4]; Postemergence, 250 g ai/ha
  Plant response rating, Purslane: 90
[4]; postemergence, 125 g ai/ha
  Plant response rating, Purslane: 60
[4]; postemergence, 62 g ai/ha
  Plant response rating, Purslane: 10
[5]; [11]
  Plant response rating, Johnsongrass: 90
[5]; [12]
  Plant response rating, Johnsongrass: 80
[5]; [13]
  Plant response rating, Johnsongrass: 30
[5]; [14]
  Plant response rating, Johnsongrass: 75
[5]; [15]
  Plant response rating, Johnsongrass: 85
[5]; [16]
  Plant response rating, Johnsongrass: 85
[5]; [17]
  Plant response rating, Johnsongrass: 70
[5]; [18]
  Plant response rating, Johnsongrass: 40
[6]; [11]
  Plant response rating, Bindweed, Field: 70
[6]; [12]
  Plant response rating, Bindweed, Field: 50
[6]; [13]
  Plant response rating, Bindweed, Field: 10
[6]; [14]
  Plant response rating, Bindweed, Field: 90
[6]; [15]
  Plant response rating, Bindweed, Field: 95
[6]; [16]
  Plant response rating, Bindweed, Field: 100
[6]; [17]
  Plant response rating, Bindweed, Field: 50
[6]; [18]
  Plant response rating, Bindweed, Field: 10
[7]; [11]
  Plant response rating, Crabgrass, Large: 80
[7]; [12]
  Plant response rating, Crabgrass, Large: 75
[7]; [13]
  Plant response rating, Crabgrass, Large: 75
[7]; [14]
  Plant response rating, Crabgrass, Large: 95
[7]; [15]
  Plant response rating, Crabgrass, Large: 100
[7]; [16]
  Plant response rating, Crabgrass, Large: 100
[7]; [17]
  Plant response rating, Crabgrass, Large: 70
[7]; [18]
  Plant response rating, Crabgrass, Large: 40
[8]; [11]
  Plant response rating, Barnyardgrass: 80
[8]; [12]
  Plant response rating, Barnyardgrass: 75
[8]; [13]
  Plant response rating, Barnyardgrass: 95
[8]; [14]
  Plant response rating, Barnyardgrass: 95
[8]; [15]
  Plant response rating, Barnyardgrass: 100
[8]; [16]
  Plant response rating, Barnyardgrass: 100
[8]; [17]
  Plant response rating, Barnyardgrass: 60
[8]; [18]
  Plant response rating, Barnyardgrass: 40
[9]; [11]
  Plant response rating, Bromegrass, Downy: 95
[9]; [12]
  Plant response rating, Bromegrass, Downy: 85
[9]; [13]
  Plant response rating, Bromegrass, Downy: 80
[9]; [14]
  Plant response rating, Bromegrass, Downy: 100
[9]; [15]
  Plant response rating, Bromegrass, Downy: 100
[9]; [16]
  Plant response rating, Bromegrass, Downy: 100
[9]; [17]
  Plant response rating, Bromegrass, Downy: 75
[9]; [18]
  Plant response rating, Bromegrass, Downy: 60
[10]; [11]
  Plant response rating, Guineagrass: 85
[10]; [12]
  Plant response rating, Guineagrass: 80
[10]; [13]
  Plant response rating, Guineagrass: 90
[10]; [14]
  Plant response rating, Guineagrass: 100
[10]; [15]
  Plant response rating, Guineagrass: 100
[10]; [16]
  Plant response rating, Guineagrass: 100
[10]; [17]
  Plant response rating, Guineagrass: 70
[10]; [18]
  Plant response rating, Guineagrass: 50
